In patent US9718790B2, “Triazine derivative and pharmaceutical composition having an analgesic activity comprising the same” (SHIONOGI & CO., LTD., priority 2010, dated 2017) one finds IC50 data, which are given here for 59 compounds.

As usually defined, the IC50 is the concentration that gives 50% inhibition.

The structures appear in SMILES notation.

The target in one assay is human P2X3 receptor (Homo sapiens (Human), UniProt P56373). The experiment in a line: Evaluation of human P2X3 receptor inhibitory activity (Fluo-3 calcium fluorescence, FDSS 3000, ATP stimulation).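 Note: stimulus was 50 nM ATP with fluorescence followed for 3 min, and the response per well was peak post-ATP fluorescence divided by the reading at measurement start.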 The conditions noted are these: C6BU-1 cells stably expressing human P2X3 receptor. The format is cell-based.
human P2X3 receptor, sequence (P56373 whole entry): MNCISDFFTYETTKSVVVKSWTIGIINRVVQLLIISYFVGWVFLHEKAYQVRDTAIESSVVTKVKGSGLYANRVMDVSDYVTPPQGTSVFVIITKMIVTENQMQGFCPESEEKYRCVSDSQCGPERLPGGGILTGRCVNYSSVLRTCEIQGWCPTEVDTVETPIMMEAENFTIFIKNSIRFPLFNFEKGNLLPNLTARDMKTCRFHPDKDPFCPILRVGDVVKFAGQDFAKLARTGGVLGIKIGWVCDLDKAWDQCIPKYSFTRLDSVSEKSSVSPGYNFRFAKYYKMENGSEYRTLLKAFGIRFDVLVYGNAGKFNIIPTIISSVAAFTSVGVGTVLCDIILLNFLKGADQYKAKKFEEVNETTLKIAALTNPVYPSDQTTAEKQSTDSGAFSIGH
Turning to `COC(=O)[C@@H](C)Cn1c(=O)[nH]/c(=N\c2ccc(OC3COC3)cc2)n(Cc2ccc(C)cc2)c1=O` [Compound I-1218], the IC50 is 0.061 µM. Turning to `COC(=O)[C@@H](C)Cn1c(=O)[nH]/c(=N\c2ccc3nc(C)sc3c2)n(Cc2ccc(Cl)cc2)c1=O` [Compound I-1321], the IC50 came to 0.007 µM. Same read-out and setting: the same measure for `CCOC(=O)c1csc(Oc2ccc(/N=c3\[nH]c(=O)n(CC)c(=O)n3Cc3ccc(Cl)cc3)cc2)n1` [Compound I-2191]: 0.005 µM. Still for that read-out and setting: the same measure for `COC(=O)Cn1c(=O)[nH]/c(=N\c2ccc(OC(C)C)c(Cl)c2)n(Cc2ccc(Cl)cc2)c1=O` [Compound I-0660]: 0.011 µM. Still for that read-out and setting: the same measure for `COc1ccc2cc(/N=c3\[nH]c(=O)n(CCC(=O)O)c(=O)n3Cc3ccc(C)cc3)ccc2n1` [Compound I-2137]: 0.134 µM. Consider `Cc1cc(/N=c2\[nH]c(=O)n(-c3ccc(C(=O)O)cc3)c(=O)n2Cc2ccc(Cl)cc2)ccc1OC(C)C` [Compound I-0762], for which the IC50 is 0.082 µM. Still for that read-out and setting: the same measure for `C[C@@H](Cn1c(=O)[nH]/c(=N\c2ccc3c(c2)COCO3)n(Cc2ccc(Cl)cc2)c1=O)C(=O)O` [Compound I-0746]: 0.14 µM. As to `CCn1c(=O)[nH]/c(=N\c2ccc(Oc3cncc(C#N)c3)cc2)n(CC2CCC3(CC2)CC3)c1=O` [Compound I-2179], the IC50 came to 0.003 µM.

Consider `Cc1ccc(Cn2c(=O)n(C[C@H](C)C(=O)O)c(=O)[nH]/c2=N\c2cnc(OC3CCC3)c(Cl)c2)cc1` [Compound I-1410], for which the IC50 is 0.056 µM.

For the compound `COC(=O)C(C)(C)n1c(=O)[nH]/c(=N\c2ccc(O)c(Cl)c2)n(Cc2ccc(Cl)cc2)c1=O` [Compound I-0676], the half-inhibitory concentration (IC50) is 0.03 µM. The same measure, in the same setting: the same measure for `Cn1c(=O)[nH]/c(=N\c2ccc(Oc3ccnc(C(=O)O)c3)cc2)n(Cc2ccc(Cl)cc2)c1=O` [Compound I-2099]: 0.008 µM; for `COC(=O)[C@@H](C)[C@@H](C)n1c(=O)[nH]/c(=N\c2ccc(CC(C)C)c(Cl)c2)n(Cc2ccc(C)cc2)c1=O` [Compound I-1439]: 0.039 µM. On the same count and under the same terms, the same measure for `O=C(O)c1cccc(Oc2ccc(/N=c3\[nH]c(=O)[nH]c(=O)n3Cc3ccc(Cl)cc3)cc2)c1` [Compound I-1923]: 0.084 µM. For `Cc1cc(Oc2ccc(/N=c3\[nH]c(=O)[nH]c(=O)n3Cc3ccc(Cl)cc3)cc2)ccn1` [Compound I-1955], the IC50 stood at 0.097 µM. As for `COC(=O)[C@@H](C)Cn1c(=O)[nH]/c(=N\c2ccc(C)c(Cl)c2)n(Cc2ccc(Cl)cc2)c1=O` [Compound I-0691], the IC50 amounted to 0.048 µM. Turning to `Cc1ccc(Cn2c(=O)n(CCC(=O)O)c(=O)[nH]/c2=N\c2ccc(Oc3ccc(C)nc3)cc2)cc1` [Compound I-1356], the IC50 turned out to be 0.048 µM.

Turning to `CCn1c(=O)[nH]/c(=N\c2ccc(OCCc3ccccn3)cc2)n(Cc2ccc(Cl)cc2)c1=O` [Compound I-2201], the IC50 is 0.092 µM. On to `CCn1c(=O)[nH]/c(=N\c2ccc(Oc3ccccc3C(N)=O)cc2)n(Cc2ccc(Cl)cc2)c1=O` [Compound I-2009], for which the IC50 worked out at 0.472 µM.

As to `CCOC(=O)CCCn1c(=O)[nH]/c(=N\c2ccc3nc(C)sc3c2)n(Cc2ccc(C)cc2)c1=O` [Compound I-2123], the IC50 was 0.004 µM. On the same count and under the same terms, the same measure for `CCn1c(=O)[nH]/c(=N\c2ccc(-n3cc(C(=O)OC)ccc3=O)cc2)n(Cc2ccc(Cl)cc2)c1=O` [Compound I-2033]: 0.622 µM; for `CCn1c(=O)[nH]/c(=N\c2ccc(Oc3ccc(N)nc3)cc2)n(Cc2ccc(Cl)cc2)c1=O` [Compound I-2214]: 0.022 µM. Consider `CC(C)COc1ccc(/N=c2\[nH]c(=O)n(C[C@H](C)C(=O)O)c(=O)n2Cc2ccc(Cl)cc2)cc1` [Compound I-0750], for which the IC50 was 0.022 µM. Same read-out and setting: the figure for `CNC(=O)CCCn1c(=O)[nH]/c(=N\c2ccc(OC(C)C)c(C)c2)n(Cc2ccc(Cl)cc2)c1=O` [Compound I-0786] is 0.015 µM; for `C[C@H](C(=O)O)[C@@H](C)n1c(=O)[nH]/c(=N\c2ccc(OCC3CC3)cc2)n(Cc2ccc(Cl)cc2)c1=O` [Compound I-1344] it is 0.033 µM; for `CCOC(=O)[C@@H](C)Cn1c(=O)[nH]/c(=N\c2ccc3oc(CO)cc3c2)n(Cc2ccc(Cl)cc2)c1=O` [Compound I-1971] it is 0.061 µM. On the same count and under the same terms, the same measure for `CCc1cc2cc(/N=c3\[nH]c(=O)n(C[C@H](C)C(=O)O)c(=O)n3Cc3ccc(Cl)cc3)ccc2s1` [Compound I-1964]: 0.277 µM; for `C[C@@H](Oc1ccc(/N=c2\[nH]c(=O)n(CC(=O)NCC(F)(F)F)c(=O)n2Cc2ccc(Cl)cc2)cc1)C(F)(F)F` [Compound I-1961]: 0.013 µM. On to `CCn1c(=O)[nH]/c(=N\c2ccc(Oc3cc(C(=O)OC)on3)cc2)n(Cc2ccc(Cl)cc2)c1=O` [Compound I-1941], for which the IC50 worked out at 0.005 µM. With `COC(=O)[C@@H](C)Cn1c(=O)[nH]/c(=N\c2ccc3nc(C)c(C)nc3c2)n(Cc2ccc(Cl)cc2)c1=O` [Compound I-1320], the IC50 was determined as 0.365 µM.

As for `COC(=O)[C@H](C)[C@H](C)n1c(=O)[nH]/c(=N\c2ccc3nc(C)ccc3c2)n(Cc2ccc(C)cc2)c1=O` [Compound I-1324], the IC50 is 0.009 µM.

The assay is the same for the next values; noted with them: C6BU-1 cells stably expressing human P2X3 receptor, Fluo-3 fluorescence, FDSS 3000.
`CCC(CC)Oc1ccc(/N=c2\[nH]c(=O)n(CCC(=O)O)c(=O)n2Cc2ccc(C)cc2)cc1` [Compound I-1069]: the IC50 worked out at 0.111 µM. As to `Cc1ccc(Cn2c(=O)n(C[C@H](C)C(=O)O)c(=O)[nH]/c2=N\c2cccc(C3CCCC3)c2)cc1` [Compound I-1110], the IC50 was 0.397 µM. Regarding `CCc1nc2ccc(/N=c3\[nH]c(=O)n(CCNC(C)=O)c(=O)n3Cc3ccc(Cl)cc3)cc2s1` [Compound I-1612], the IC50 was found to be 0.005 µM. In the case of `CC[C@@H](C)Oc1ccc(/N=c2\[nH]c(=O)n(CCCO)c(=O)n2Cc2ccc(Cl)cc2)cc1Cl` [Compound I-1623], the IC50 came to 0.007 µM.

Consider `CCOc1ccc(/N=c2\[nH]c(=O)n(C[C@H]3COC(C)(C)O3)c(=O)n2Cc2ccc(Cl)cc2)cc1Cl` [Compound I-1887], for which the IC50 is 0.003 µM. `CC(C)Oc1ccc(/N=c2\[nH]c(=O)n(CC3(C(=O)O)CC3)c(=O)n2Cc2ccc(Cl)cc2)cc1` [Compound I-0988]: the IC50 was determined as 0.093 µM.

Take `COC(=O)C(C)(C)Cn1c(=O)[nH]/c(=N\c2ccc3nc(C)sc3c2)n(Cc2ccc(C)cc2)c1=O` [Compound I-1571]: the IC50 was found to be 0.004 µM. Still for that read-out and setting: the figure for `CCn1c(=O)[nH]/c(=N\c2ccc(Oc3ccc(NC(C)=O)cc3)cc2)n(Cc2ccc(Cl)cc2)c1=O` [Compound I-1871] is 0.006 µM; for `CC(C)Oc1ccc(/N=c2\[nH]c(=O)n(CCC(=O)O)c(=O)n2CCC2C[C@H]3CC[C@@H]2C3)cc1F` (some centres unmarked) [Compound I-1729] it is 0.669 µM.

The assay is the same for the next values; noted with them: human P2X3 receptor, Test Example 1.
As for `Cc1ccc(Cn2c(=O)n(C[C@H](C)C(=O)O)c(=O)[nH]/c2=N\c2ccc(CC(C)(C)F)c(Cl)c2)cc1` [Compound I-1531], the IC50 stood at 0.025 µM.

Turning to `CCn1c(=O)[nH]/c(=N\c2ccc([S+]([O-])c3ccc(C(=O)O)cc3)cc2)n(Cc2ccc(Cl)cc2)c1=O` (centres unmarked) [Compound I-2631], the IC50 is 0.475 µM. Still for that read-out and setting: the figure for `CCn1c(=O)[nH]/c(=N\c2ccc(Oc3ncc(C(=O)O)s3)cc2)n(Cc2ccc(F)cc2)c1=O` [Compound I-2567] is 0.038 µM. Turning to `Cn1c(=O)[nH]/c(=N\c2ccc(Oc3nccc(C(N)=O)n3)cc2)n(Cc2ccc(Cl)cc2)c1=O` [Compound I-2380], the IC50 was found to be 0.029 µM. Take `CC(C)Oc1ccc(/N=c2\ncn(C(C)C)c(=O)n2Cc2ccc(Cl)cc2)cc1` [Compound I-2276, (E)-3-(4-chlorobenzyl)-4-(4-isopropoxyphenylimino)-1-isopropyl-3,4-dihydro-1,3,5-triazine-2(1H)-one]: the IC50 worked out at 0.778 µM. On the same count and under the same terms, the figure for `O=c1[nH]/c(=N\c2ccc(Oc3ccon3)c(F)c2)n(Cc2ccc(Cl)cc2)c(=O)n1C[C@H](O)CO` [Compound I-2440] is 0.005 µM. As to `CCn1c(=O)[nH]/c(=N\c2ccc(Oc3cc(C#N)ccn3)cc2)n(Cc2ccc(Cl)cc2)c1=O` [Compound I-2227], the IC50 is 0.004 µM.

As to `Cc1nnc(Oc2ccc(/N=c3\[nH]c(=O)n(C)c(=O)n3Cc3ccc(Cl)cc3)cc2)o1` [Compound I-2355], the IC50 was determined as 0.071 µM. For the compound `CNC(=O)Cn1c(=O)[nH]/c(=N\c2ccc(Oc3ccnnc3)cc2)n(Cc2ccc(Cl)cc2)c1=O` [Compound I-2696], the IC50 was 0.008 µM. Same read-out and setting: the same measure for `CCn1c(=O)[nH]/c(=N\c2ccc(Oc3ccc(C(=O)NC)nn3)cc2)n(Cc2ccc(Cl)cc2)c1=O` [Compound I-2533]: 0.004 µM; for `Cn1c(=O)[nH]/c(=N\c2ccc(Oc3ccc(C#N)cn3)cc2)n(Cc2ccc(Cl)cc2)c1=O` [Compound I-2392]: 0.011 µM; for `CCn1c(=O)[nH]/c(=N\c2ccc(Oc3ccc(NC(=O)NC)nc3)cc2)n(Cc2ccc(Cl)cc2)c1=O` [Compound I-2426]: 0.011 µM. For `CCn1c(=O)[nH]/c(=N\c2cccc(Oc3cccc(C#N)n3)c2)n(Cc2ccc(Cl)cc2)c1=O` [Compound I-2591], the IC50 turned out to be 0.051 µM. Take `Cc1ccc(Cn2c(=O)n(CCC(=O)O)c(=O)[nH]/c2=N\c2ccc(Oc3cccc(C#N)n3)cc2)cc1` [Compound I-2634]: the IC50 amounted to 0.011 µM. As for `CCn1c(=O)[nH]/c(=N\c2ccc(Oc3ccnc(C(=O)O)c3)c(OC)c2)n(Cc2ccc(Cl)cc2)c1=O` [Compound I-2295], the IC50 is below 0.004 µM. As for `Cc1nsc(Oc2ccc(/N=c3\[nH]c(=O)n(CCO)c(=O)n3Cc3ccc(Cl)cc3)cc2)n1` [Compound I-2575], the IC50 came to 0.006 µM. The same measure, in the same setting: the figure for `CCn1c(=O)[nH]/c(=N\c2ccc(Oc3ccc(C(=O)OC)nn3)cc2)n(Cc2ccc(Cl)cc2)c1=O` [Compound I-2269] is 0.002 µM; for `COCCn1c(=O)[nH]/c(=N\c2ccc(Oc3cncc(C(=O)OC)c3)cc2)n(Cc2ccc(Cl)cc2)c1=O` [Compound I-2537] it is 0.005 µM. As to `Cc1cnc(Oc2ccc(/N=c3\[nH]c(=O)n(CC(N)=O)c(=O)n3Cc3ccc(Cl)cc3)cc2)s1` [Compound I-2647], the IC50 is 0.016 µM.

For the compound `Cc1ccc(/N=c2\[nH]c(=O)n(C[C@H](C)C(=O)O)c(=O)n2Cc2ccc(Cl)cc2)cc1C(F)(F)F` [Compound I-0843], the IC50 was 0.183 µM.
